# Experiments:
# [1] = test system: mice subjected to restraint stress; assay: Open field test after restraint stress (Example 1, Experiment 1); type: in vivo, C57BL/6 mice; details: RS mice, IN cotinine 10 mg/ml, 25 min of testing; p=0.058
# Protocol: Mice were treated immediately after the 21 days of immobilization stress (6 h/day) until euthanasia. Mice (n=5-8/condition) received daily treatments with 1. PBS (phosphate buffer saline, pH 7.4) via intranasal (2×12 μl/nostril), 2. PBS via gavage (50 μl); 3. Cotinine dissolved in PBS via oral (gavage, (0.5 mg/kg; Cot 0.5); 4. Cotinine dissolved in PBS via intranasal (Cot IN, 10 mg/ml, 2×12 μl/nostril).
# (§1) To induce chronic stress, the restraint stress paradigm was used as previously described. Mice are immobilized in 50 ml falcon plastic tubes that were attached to mouse cages. The immobilization proceeded during 6 h from 9:00 AM to 3:00 PM in absence of treatments. Tubes have holes in the opposite side of the tube to allow the animal breathing and urination. Mice were almost completely immobilized for 6 h/day for 21 days after which they were permitted freely to move, eat and drink.
# OF is used to monitor locomotor activity. […] Several parameters including, total distance traveled, speed, rearing behavior and time spent in the center and peripheral zones (20 cm×20 cm) are measured to assess locomotor activity and behavioral changes induced by stress.
# [2] = test system: mice subjected to restraint stress; assay: Porsolt test, oral co-treatment during restraint stress (Example 1, Experiment 2); type: in vivo, C57BL/6 mice; details: RS mice, cotinine 5 mg/kg, KO, or mix, vs stressed vehicle
# Protocol: Mice (n=5-8/condition) were treated via oral during and after restraint stress continuously until euthanasia.
# Mice received daily treatments with
# 2. Cotinine dissolved in PBS via oral (gavage, (5 mg/kg; Cot 0.5)
# 3. Krill oil (KO) via oral (5 mg/ml in PBS, 50 μl) continuously from the beginning of the restraint stress until euthanasia.
# as §1
# This test is used to measure the antidepressant effects of drugs, and consists in placing each mouse in a transparent cylinder filled with water at room temperature (RT). After a brief period of strong activity, rodents adopt a characteristic immobile posture. The time mice spent immobile is a measure of depressive-like behavior. The immobility time will be recorded during a 15-min and a next day 5-min trial. The time spent by each mouse immobile will be recorded.
# [3] = test system: mice subjected to fear conditioning; assay: Novel object recognition after fear conditioning (Example 1, Experiment 3); type: in vivo, C57BL/6 mice; details: FC mice, IN post-treatment
# Protocol: Mice were treated via IN 2 hours after fear conditioning and continuously until euthanasia.
# Mice (n=5-6/condition) received daily treatments with 1. PBS (phosphate buffer saline, pH 7.4) via intranasal (2×12 μl/nostril), 2. Cotinine dissolved in PBS via intranasal (Cot IN, 10 mg/ml, 2×12 μl/nostril); 3. Cotinine+krill oil both dissolved in PBS via intranasal (Cot IN, 10 mg/ml+KO, 48 mg/ml, 2×12 μl/nostril).
# Contextual FC was performed as described. The conditioning chamber used is surrounded by a sound-attenuating box with a camera connected to freeze frame software (MED Associates Inc.), also equipped to provide a background white noise (72 dB). The conditioning chamber (33 cm×20 cm×22 cm) contains in one side a speaker and in the opposite slide has a 24V light. The chamber has a 36-bar insulated shock grid floor. […] Freezing behavior that is defined as the absence of all movement except the one needed for breathing was assessed using the FreezeView Software (MED Associates Inc.).
# After a habituation step in the OF arena, each mouse was individually placed in the apparatus containing two identical objects located equidistant to each other (familiarization phase) and left to explore the objects for 5 min. […] The time exploring the two objects was recorded during 5 min. […]
# [4] = test system: restrained mice; assay: Open field test, oral co-treatment during restraint stress (Example 3); type: in vivo, C57BL/6J mice; details: oral cotinine 5 mg/kg, KO 143 mg/kg or both, 25 min
# Protocol: Mice after acclimatization and one week of handling were randomly divided into five groups (n=8/condition) and orally treated as follow: 1) control non-restrained mice treated with vehicle (PBS, pH 7.4); 2) restrained mice treated with vehicle; 3), restrained mice treated with a cotinine solution (5 mg/kg in PBS, pH 7.4) via gavage; 4) restrained mice treated with KO (143 mg/kg); 5) restrained mice treated with cotinine plus KO solution. Mice were started with treatments, the first day of restraint and continuously until euthanasia. Treatments were administered at the same time of the day, 30 min before restraint. After 21 days into treatments, mice were behaviorally tested (FIG. 17).
# Restraint stress (RS) was used as a model of chronic stress-induced depressive-like behavior and cognitive impairment. We used this task because is a reliable method that mimics the effects of chronic stress without causing physical pain or unnecessary discomfort to the mice. Mice were gently introduced into a 50-ml conical transparent plastic tubes (Corning Inc.). […]
# The open field (OF) test was conducted as previously described with minor modifications to identify changes in locomotor activity in response to stress and/or drug treatments. […] Total distance traveled, and time spent in the center zone were measured under moderate lighting using the video tracking software (ANY-Maze, Stoelting Co.).
structure (smiles),measurement,setting,value
"CN1C(=O)CC[C@H]1c1cccnc1 [Cotinine, (5S)-1-methyl-5-(3-pyridyl) pyrrolidin-2-one]",distance traveled in the open field test,[1],44±18 m
same,depressive-like behavior (freezing behavior) in the Porsolt test,[2],non-significant decrease in depressive-like behavior
same,number of entries to the new object area (NOR),"[3]; Cotinine p<0.05, Cotinine+KO p<0.01",higher number of entries to the new object area than PBS-treated FC mice
same,time exploring the new object (NOR),[3]; both p<0.05,spent more time than PBS-treated FC mice
same,"locomotor activity in the open field (distance traveled, speed)",[4],no significant changes in locomotor activity

# From US11260050B2, “Combination of cotinine plus antioxidant for treatment-resistant depression and correction of astrocytes functional deficit induced by depression and other neuropathological” (UNIVERSIDAD SAN SEBASTIAN, priority 2017, dated 2022)
